The subject of assay [1] is 17β-hydroxysteroid dehydrogenase. Particulars: Thomas et al., 1983; cited from earlier work.
In assay [2] the test system is uterine weight in adult female ovariectomized Balb/c mice. Put plainly: inhibition of the estradiol-induced stimulation of uterine weight in adult female ovariectomized Balb/c mice. The class given is in vivo. The protocol: EM-142, and/or estradiol contained in ethanol were injected subcutaneously in the appropriate groups in a solution of 0.9% (w/v) sodium chloride and 1% (w/v) gelatin at different concentrations in 0.2 ml for EM-142, twice daily, starting on the day of ovariectomy for a total of 9 injections. Estradiol was injected at the dose of 0.01 μg in 0.2 ml, twice daily, starting on the morning after ovariectomy for a total of 8 injections.
After sacrifice, the uteri were rapidly removed, freed from fat and connective tissue and weighted. Results shown in FIG. 2 are the means±SEM of groups of 9-10 mice.
"EM 139", and/or estradiol dissolved in ethanol were injected subcutaneously in the appropriate groups in a solution of 0.9% (w/v) sodium chloride and 1% (w/v) gelatin at different concentrations of "EM 139" (as noted along the X axis of FIG. 3). A dosage of 0.2 ml of the foregoing preparation, was administered twice daily, starting on the day of ovariectomy for a total of 9 injections. Estradiol was injected at the dose of 0.01 μg in 0.2 ml, twice daily, starting on the morning after ovariectomy for a total of 8 injections.
After sacrifice, the uteri were rapidly removed, freed from fat and connective tissue and weighed. Results shown in FIG. 3 are the means±SEM of groups of 9-10 mice.

The subject of assay [3] is 17β-hydroxysteroid dehydrogenase (17β-HSD). The assay is described as follows: inhibition of 17β-HSD catalyzed conversion of estradiol to estrone (NADH formation at 340 nm). Particulars: increasing concentrations; 1 μg 17β-HSD, 5 mM NAD, 20 μM 17β-estradiol, pH 7.5, 25° C., 15 min; FIG. 4. In kind it is biochemical, human. From the text: To test the effect of "EM 139" on the inhibition of sex steroid formation, its effect on the 17β-hydroxysteroid dehydrogenase catalyzed conversion of estradiol to estrone was observed. The reaction was followed by monitoring formation of NADH (at 340 nm). The rate of conversion of cofactor NAD to NADH varies directly with the rate of estradiol conversion to estrone. The ability of "EM 139" to inhibit estrone production is indicative of its ability to inhibit the estrogen-forming reverse reaction because both reactions are catalyzed by 17β-hydroxysteroid dehydrogenase (Thomas et al., J. Biol. Chem. 258: 11500-11504, 1983). 17β-hydroxysteroid dehydrogenase (17β-HSD) was purified to homogeneity from human placenta. A reaction vessel was prepared containing 1 μg 17β-HSD, 5 mM NAD, 20 μM 17β-estradiol, and the concentrations of the test compound "EM 139" which are indicated along the X-axis of FIG. 4 in 1.0 ml of a mixture of Tris-HCl (50 mM), EDTA (2 mM), NaN3 (5 mM). The pH was 7.5. The reaction was allowed to proceed at 25° C. for 15 min. Formation of NADH was measured at 340 nm.

Assay [4] concerns ZR-75-1 human breast cancer cell line. Put plainly: growth of ZR-75-1 human breast cancer cells. The class given is cell-based. Particulars: for pIC50: Homo sapiens, 240 h, 10 days, read-out: half-maximal effectiveness / IC50 on growth of ZR-75-1 cells. The protocol: ZR-75-1 cells (83rd passage) were obtained from the American Type Culture Collection (Rockville, Md.) and routinely cultured in phenol-red free RPMI 1640 supplemented with 1 nM E2, 2 mM L-glutamine, 1 mM sodium pyruvate, 15 mM N-2-hydroxyethyl-piperazine-N'-2-ethanesulfonic acid, 100 IU penicillin/ml, 100 μg streptomycin/ml, and 10% (v/v) fetal bovine serum (Hyclone, Logan, UT) under a humidified atmosphere of 95% air, 5% CO2, at 37° C. All media and medium supplements were purchased from Sigma. Cells were subcultured weekly by treatment with a pancreatic solution containing 0.02% EDTA (w/v). The cell cultures used for the experiments herein described were between passages 89 and 94.
Cells in their logarithmic growth phase were harvested, briefly centrifuged, and resuspended in RPMI 1640. Cells were then plated in triplicate in LIMBRO 24-well plastic culture plates (2 cm^2 /well). Since plating density influences the effect of hormones on ZR-75-1 cell growth, cells were plated at a density of 1×10^4 cells/well. After 72 h, medium was replaced with fresh medium of identical composition containing, in addition, the concentrations of steroids and/or inhibitors (e.g. EM 312 or EM 343) indicated along the X-axis of FIG. 5. Control cultures received the ethanol vehicle only. Cells were then allowed to grow at 37° C. for 10 days with medium changes (of identical composition) every 2 days. In absence of inhibitors, in 0.1 nM estradiol (E2)-containing medium, ZR-75-1 cells have doubling time of about 48 h.
After E2 and/or antiestrogen treatment, cells were harvested by addition of 0.5 ml of a pancreatin solution (Sigma) for 5-10 min at 37° C. before addition of 0.5 ml of RPMI 1640 containing 5% dextran-coated charcoal-fetal bovine serum in order to block enzymatic action. Cell number (0.10-ml aliquot) was determined by measurement of DNA content as previously described (Simard et al., Endocrinology 126: 3223-3231, 1990).

For assay [5], the system named is advanced breast cancer. Particulars: H. Mouridsen et al., 1978; cited from earlier work.
For assay [6] the following is noted: reported by Saeed et al. and Sharma et al., 1990; cited from earlier work.
In assay [7] the test system is rat uterine cytosol estrogen receptor. Put plainly: competition binding on the rat uterine cytosol estrogen receptor with [3H] estradiol. Particulars: 25° C., FIG. 1. The protocol: J. Endocrinol. 112: R7-R110) and EM-142 (an antiestrogen having a nonsteroidal nucleus and synthesized in example 1, herein) for the rat uterine cytosol receptor ([…] et al., 1978; J. Steroid Biochem. 9: 1079-1082). EM-142 from example 1 was tested by competition binding on the rat uterine cytosol estrogen receptor with [^3 H] estradiol according to […] et al. (1976) prodecure. […] (incubation was performed at 25° C. for 3 hours).

The values that follow come from patent US5395842A, “Anti-estrogenic compounds and compositions” (Endorecherche Inc., priority 1991, dated 1995).

pIC50: −log10 of the molar value.

As for `C=C1C[C@H]2[C@@H]3CCc4cc(O)ccc4[C@H]3CC[C@]2(C)[C@H]1O` [16-methylene estradiol], in assay [1], the “inhibition of 17β-hydroxysteroid dehydrogenase activity (in words)” value is “inhibitors of 17β-hydroxysteroid dehydrogenase activity”.

As for `CCCCN(C)C(=O)CCCCCCCCCC[C@@H]1Cc2cc(O)ccc2[C@H]2CC[C@]3(C)[C@@H](O)[C@H](Cl)C[C@H]3[C@H]12` [EM 139, N-n-butyl-N-methyl-11-(16'α-chloro-3',17'β-dihydroxy-estra-1',3',5'(10') -trien-7' α-yl) undecanamide], the “reduction of estradiol-induced uterine weight gain (in words)” value in assay [2] (s.c., twice daily, 9 injections, FIG. 3) is recorded as “highly effective in reducing estradiol-induced uterine weight gain”. Besides, the “inhibition of 17β-HSD reaction (in words)” value in assay [3] is on record as “significantly inhibited the reaction”.

Regarding `C=C1C[C@H]2[C@@H]3CCc4cc(O)ccc4[C@H]3CC[C@]2(C)C1=O` [16-methylene estrone], the “inhibition of 17β-hydroxysteroid dehydrogenase activity (in words)” value in assay [1] is reported as “inhibitors of 17β-hydroxysteroid dehydrogenase activity”.

For `CC1=C(c2ccc(O)cc2)C(c2ccc(OCCN3CCCCC3)cc2)Oc2cc(O)ccc21` (stereo not shown) [EM 343], in assay [4] (ZR-75-1 cells, FIG. 5), the pIC50 was 9.59. Besides, the “cell growth inhibition (in words)” value in assay [4] (ZR-75-1 cells, low concentration, FIG. 5) was “extensive cell growth inhibition”.

Turning to `CC/C(=C(\c1ccccc1)c1ccc(OCCN(C)C)cc1)c1ccccc1` [Tamoxifen], the “women patients with remission of advanced breast cancer” value in assay [5] is recorded as “about 30%”.

For the molecule `Oc1ccc(C2=Cc3ccc(O)cc3OC2c2ccc(OCCN3CCCCC3)cc2)cc1` (stereo not shown) [EM 312], in assay [4] (ZR-75-1 cells, FIG. 5), the pIC50 is 9.07. Besides, the “fold by which IC50 is higher than that of EM 343” value in assay [4] (ZR-75-1 cells, relative to EM 343, FIG. 5) is given as 3 -fold. Also, the “comparative effect on growth of ZR-75-1 cells vs EM 343 (in words)” value in assay [4] (comparative testing in the applicant's laboratory) was “underperformed EM 343”. Also, the “antiestrogenic activity (in words)” value in assay [6] is reported as “antiestrogenic activity”.

Take `CCCCN(C)C(=O)CCCCCCCCCCC(=C(CC)c1ccc(O)cc1)c1ccc(O)cc1` [EM 142, N-butyl, N-methyl-12,13-Bis(4-hydroxyphenyl)-12-pentadecenoic amide]: in assay [7], the “binding potency compared with the antiestrogen ICI 164384 (in words)” value is “more potent” and the “times less potent than 17β-estradiol” value turned out to be 3 times. For the same molecule, the “inhibitory effect on E2-induced uterine growth (in words)” value in assay [2] (0.3 μg, s.c., twice daily, estradiol 0.01 μg, FIG. 2) was “significant inhibitory effect”. In addition, the “reversal of estrogenic action on uterine weight (in words)” value in assay [2] (20 μg, s.c., twice daily, estradiol 0.01 μg, FIG. 2) is reported as “complete reversal of estrogenic action”. Besides, in assay [2] (EM-142, agonism on uterine weight), the “estrogenic effect on uterine weight (in words)” value is “no estrogenic effect on uterine weight”.
